Results: patent publication US6720353B2, “Plant proanthocyanidin extract effective at inhibiting adherence of bacteria with p-type fimbriae to surfaces” (priority 1997, dated 2004)

Key:
type 1 E. coli [1] = conditions: cited from earlier work
P-type E. coli [2] = assay: Hemagglutination assay: inhibition of P-type E. coli-induced agglutination of A+ human red blood cells (HRBC); type: cell-based; conditions: for Inhibition of agglutination, HRBC: P-type E. coli, A+ human red blood cells, neutral pH
Experimental: (§1) Sixty E. coli strains were isolated from the urine of human and animal (dog and cat) patients suffering from urinary tract infections. After determining the fimbrial type of each strain, 5 strains specific for P-type fimbriae, and 5 strains specific for type 1 fimbriae were selected for use in bioactivity testing. Bacterial strains were subcultured in tryptose broth at 37° C. for 16 h. P-type strains were transferred to colonization factor agar (CFA) plates and grown overnight at 37° C. to enhance production of P-type fimbriae. Strains were harvested by centrifugation, washed once and suspended in phosphate-buffered saline solution (PBS) at pH 7.0 at a concentration of 5×10^8 bacteria/mL. […] Therefore, mixtures of P-type strains were used to test for P-type bioactivity, and mixtures of type 1 strains were used to test for type 1 bioactivity. Strains were kept frozen at −70° C. in tryptose broth (30% glycerol) for long-term storage.

P-type E. coli [3] = assay: Latex bead agglutination test (beads coated with synthetic P-type receptor analog Galα1→4Galβ); type: cell-based; conditions: for Inhibition of agglutination, P-Receptor: P-type E. coli, latex beads coated with P-type receptor analog
Experimental: as §1
The fractions were also tested in the P-type receptor bioassay of de Man et al., 1987, J. Clin. Microbiol. 25(2):401-406. Dried Fractions 1-8 were dissolved in PBS, neutralized, and mixed with P-type bacterial suspensions (30 μl fraction to 10 μl of bacterial suspension) on a polystyrene 24-well plate and incubated for 10 min on a rotary shaker. Latex beads coated with a synthetic P-type receptor analog (Galα1→4Galβ) (BACH test, Kabi Vitrum, Stockholm, Sweden) suspended in water at a concentration of 5×10^9 beads/mL were added (10 μl) to each well and incubation continued for 20 min on the rotary shaker. […] (4) uncoated beads and test fractions, and (5) bacteria, coated beads and epicatechin trimer. The control to show agglutination consisted of bacteria and coated beads.

type 1 E. coli [4] = assay: Hemagglutination assay with guinea pig red blood cells (GPRBC); type: cell-based
Experimental: as §1
The inhibition of adherence of type 1 E. coli by the various fractions was tested according to hemagglutination assay for P-type bacteria, except guinea pig red blood cells (GPRBC) were used in place of HRBC. The results are shown in Table 4 under the column GPRBC using the same scoring system as described above.

type 1-fimbriated E coli = assay: Yeast (Saccharomyces cerevisiae) agglutination assay; type: cell-based; conditions: for Inhibition of agglutination, Yeast Cells: type 1 E. coli, S. cerevisiae
Experimental: as §1
The fractions were also tested in the bioassay of Eschdat et al., 1978, Biochem. Biophys. Res. Commmun. 85:1551-1559, using yeast cells. Yeast cultures of Saccharomyces cerevisiae were grown in Sabouraud dextrose broth and incubated for 24 hr at 38° C. Yeast cells were transferred to Sabouraud dextrose agar plates and grown under the same conditions. Cells were harvested, washed and suspended in PBS at a concentration of 4×10^8 cells/mL. Ten μl of type 1-fimbriated E coli were mixed with neutralized test fractions (30 μl) in a 24-well polystyrene plate and incubated for 10 min on a rotary shaker. Yeast cell suspension (10 μl) was added to each well and incubated for 5 min. […] The control to show agglutination consisted of bacteria and yeast. Tie results are shown in Table 4 under the column “Yeast Cells” using the same scoring system as described above.

Molecule | Inhibition of type 1 E. coli to uroepithelial cells (type 1 E. coli [1]) | Inhibition of agglutination, HRBC (P-type E. coli [2]) | Agglutination in control well (P-type E. coli [2]; bacteria, HRBC and standard) | Inhibition of agglutination, P-Receptor (P-type E. coli [3]) | Agglutination in control well (P-type E. coli [3]; bacteria, coated beads and standard) | Inhibition of agglutination, GPRBC (type 1 E. coli [4]) | Inhibition of agglutination, Yeast Cells (type 1-fimbriated E coli) | Agglutination in control well (type 1-fimbriated E coli; bacteria, yeast and 1% D-mannose)
O=C(CO)[C@@H](O)[C@H](O)[C@H](O)CO [fructose] | responsible for the inhibition |  |  |  |  |  |  | 
Epicatechin Trimer |  | + | no agglutination or complete inhibition of agglutination | + | no agglutination or complete inhibition of agglutination | − | − | 
O=C[C@@H](O)[C@@H](O)[C@H](O)[C@H](O)CO [1% D-Mannose, D-Mannose] |  | − |  | − |  | + | + | no agglutination or complete inhibition of agglutination
